Assay: xn = mol fraction of the nth substance listed
Conditions: 100 kPa

CCC[NH3+].O=C[O-] + CN1CCCC1=O
speed of sound [m/s]
Conditions	293.15 K	298.15 K	303.15 K	308.15 K	313.15 K	318.15 K	323.15 K	328.15 K	333.15 K
x2 = 0	–	1540.7	–	1519.8	1509.5	1499.2	1489.1	1479	1469
x2 = 0.0494	1556.8	1546	1535.1	–	1513.7	1503.1	–	1482	1471.6
x2 = 0.1047	1557.7	1546.3	1534.9	1523.6	–	1501.3	1490.2	1479.3	1468.4
x2 = 0.1953	1559.5	1547.5	1535.4	1523.3	1511.4	1499.5	1487.7	1475.9	1464.2
x2 = 0.3021	–	1547.4	1534.2	–	1508.1	1495.2	1482.3	1469.4	1456.6
x2 = 0.4205	1563.9	–	–	1520.9	1506.7	1492.6	1478.5	1464.5	1450.5
x2 = 0.5063	1566	1550.9	1535.7	1520.7	1505.7	–	1475.9	1461.1	1446.3
x2 = 0.6001	1565.4	1549.7	1533.7	1517.8	1501.9	1486.2	–	–	1439.1
x2 = 0.7075	1565	1548.1	1531.2	1514.3	1497.6	1480.9	1464.2	1447.5	–
x2 = 0.7986	–	–	1529.2	1511.6	–	1476.8	1459.5	1442.2	–
x2 = 0.9048	–	1545.7	1527.6	–	1491.4	1473.5	1455.7	1438	1420.3

CC(=O)[O-].CCC[NH3+] + CN1CCCC1=O
speed of sound [m/s]
Conditions	293.15 K	298.15 K	303.15 K	308.15 K	313.15 K	318.15 K	323.15 K	328.15 K	333.15 K
x2 = 0	1504.2	1490.7	–	1461.9	1447.5	–	–	1405.6	–
x2 = 0.05	1506.6	1493.5	–	1464	–	1434.5	1420.4	1406.6	1392.6
x2 = 0.0978	1509.6	1495.7	1481.1	1466.8	1451.7	1436.1	1421.4	1407.6	1393.3
x2 = 0.1978	1515	1501	1485.6	1471.1	–	1439.8	1424.3	1410	1395.1
x2 = 0.3095	1522.4	1506.4	1491.6	1474.8	1459.3	–	–	1413.1	1397.7
x2 = 0.3891	1527.5	1511.4	1495.3	1479	1462.8	1446.7	–	–	1399.2
x2 = 0.4931	1533.3	1517	1500.3	1484.2	1467.1	1451.1	1433.2	1417.5	1401.1
x2 = 0.599	1539.9	1521.9	–	1488.3	1471.5	1453.8	1436.8	1420.2	–
x2 = 0.7001	1545.8	1527.3	–	1492	1474.8	–	1439.8	1422.2	1405.1
x2 = 0.7998	–	1533.1	1515.2	1497.2	–	1461.4	–	–	1407.8
x2 = 0.891	–	1538.6	1519.6	1501.1	1482.7	1463.9	1445.1	1427.5	1409

Reference: a compilation of properties of binary mixtures (doi:10.1016/j.molliq.2016.04.040)
